Test results as given in patent publication US8822462B2, “Subunit selective NMDA receptor potentiators for the treatment of neurological conditions” (Emory University, priority 2009, dated 2014).
Where two headings read alike, the source gives them in different places.

What was measured:
[1] = target: T1, NR1/NR2B (Homo sapiens, UniProt Q05586+Q13224); assay: Two electrode voltage clamp, Xenopus laevis oocytes expressing NR1/NR2B; assay type: cell-based; conditions: for IC50: fitted to composite concentration-effect data, Max 0 = inhibition, read-out: 2B IC50
T1 construct: expressed in transfected cells; host or cells: Xenopus laevis oocytes
T1 sequence (Q13224 27-1484, species assumed, other chains not shown): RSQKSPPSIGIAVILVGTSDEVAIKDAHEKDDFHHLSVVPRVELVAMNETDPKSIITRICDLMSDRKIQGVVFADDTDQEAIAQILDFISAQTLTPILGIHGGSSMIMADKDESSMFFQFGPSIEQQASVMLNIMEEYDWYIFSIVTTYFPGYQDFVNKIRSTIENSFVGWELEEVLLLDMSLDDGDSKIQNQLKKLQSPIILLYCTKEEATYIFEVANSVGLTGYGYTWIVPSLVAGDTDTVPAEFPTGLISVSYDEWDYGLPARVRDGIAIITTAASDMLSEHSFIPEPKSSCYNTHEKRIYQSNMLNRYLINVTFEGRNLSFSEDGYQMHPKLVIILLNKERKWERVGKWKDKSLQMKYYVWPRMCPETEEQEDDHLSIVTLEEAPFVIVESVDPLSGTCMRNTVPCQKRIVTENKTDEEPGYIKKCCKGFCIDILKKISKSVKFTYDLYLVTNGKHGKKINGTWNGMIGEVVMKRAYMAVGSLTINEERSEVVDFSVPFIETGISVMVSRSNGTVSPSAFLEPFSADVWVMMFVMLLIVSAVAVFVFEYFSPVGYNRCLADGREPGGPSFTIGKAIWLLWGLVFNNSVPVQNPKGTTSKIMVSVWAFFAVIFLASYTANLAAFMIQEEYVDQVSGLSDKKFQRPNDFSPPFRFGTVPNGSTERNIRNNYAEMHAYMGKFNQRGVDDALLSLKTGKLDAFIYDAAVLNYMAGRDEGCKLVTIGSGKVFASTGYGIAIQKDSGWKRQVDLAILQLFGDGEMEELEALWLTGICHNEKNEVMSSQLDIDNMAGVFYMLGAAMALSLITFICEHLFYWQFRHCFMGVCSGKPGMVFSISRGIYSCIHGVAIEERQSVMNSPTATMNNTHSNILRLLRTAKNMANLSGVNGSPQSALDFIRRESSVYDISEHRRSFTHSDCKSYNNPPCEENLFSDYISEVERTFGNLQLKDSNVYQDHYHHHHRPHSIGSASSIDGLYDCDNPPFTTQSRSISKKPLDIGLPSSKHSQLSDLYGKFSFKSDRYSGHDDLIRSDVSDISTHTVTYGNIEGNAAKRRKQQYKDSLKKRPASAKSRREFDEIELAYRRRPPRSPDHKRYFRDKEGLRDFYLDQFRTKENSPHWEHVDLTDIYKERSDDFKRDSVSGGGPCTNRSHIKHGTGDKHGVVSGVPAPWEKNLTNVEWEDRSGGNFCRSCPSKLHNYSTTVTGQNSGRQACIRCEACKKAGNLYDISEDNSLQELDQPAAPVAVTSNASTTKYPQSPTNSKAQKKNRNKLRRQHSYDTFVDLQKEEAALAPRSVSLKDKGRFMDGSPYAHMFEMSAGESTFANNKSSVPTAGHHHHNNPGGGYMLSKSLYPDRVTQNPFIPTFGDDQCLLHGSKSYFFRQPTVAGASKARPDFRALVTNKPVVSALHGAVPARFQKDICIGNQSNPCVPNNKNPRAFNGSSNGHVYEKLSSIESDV
Procedure: (§1) In the table above, potency is expressed as fitted EC50 value to average composite concentration-effect data constructed from current responses recorded under two electrode voltage clamp from Xenopus laevis oocytes expressing either NR1/NR2A, B, C, or D, GluR1, or GluR6. No effect means less than 20% change in response amplitude at 30 μM of drug.

[2] = target: T2, NR1/NR2A (Homo sapiens, UniProt Q12879); assay: Two electrode voltage clamp, Xenopus laevis oocytes expressing NR1/NR2A; assay type: cell-based; conditions: read-out: 2A percent effect at the maximum tested concentration
T2 construct: expressed in transfected cells; host or cells: Xenopus laevis oocytes
T2 sequence (Q12879 23-1464, species assumed, other chains not shown): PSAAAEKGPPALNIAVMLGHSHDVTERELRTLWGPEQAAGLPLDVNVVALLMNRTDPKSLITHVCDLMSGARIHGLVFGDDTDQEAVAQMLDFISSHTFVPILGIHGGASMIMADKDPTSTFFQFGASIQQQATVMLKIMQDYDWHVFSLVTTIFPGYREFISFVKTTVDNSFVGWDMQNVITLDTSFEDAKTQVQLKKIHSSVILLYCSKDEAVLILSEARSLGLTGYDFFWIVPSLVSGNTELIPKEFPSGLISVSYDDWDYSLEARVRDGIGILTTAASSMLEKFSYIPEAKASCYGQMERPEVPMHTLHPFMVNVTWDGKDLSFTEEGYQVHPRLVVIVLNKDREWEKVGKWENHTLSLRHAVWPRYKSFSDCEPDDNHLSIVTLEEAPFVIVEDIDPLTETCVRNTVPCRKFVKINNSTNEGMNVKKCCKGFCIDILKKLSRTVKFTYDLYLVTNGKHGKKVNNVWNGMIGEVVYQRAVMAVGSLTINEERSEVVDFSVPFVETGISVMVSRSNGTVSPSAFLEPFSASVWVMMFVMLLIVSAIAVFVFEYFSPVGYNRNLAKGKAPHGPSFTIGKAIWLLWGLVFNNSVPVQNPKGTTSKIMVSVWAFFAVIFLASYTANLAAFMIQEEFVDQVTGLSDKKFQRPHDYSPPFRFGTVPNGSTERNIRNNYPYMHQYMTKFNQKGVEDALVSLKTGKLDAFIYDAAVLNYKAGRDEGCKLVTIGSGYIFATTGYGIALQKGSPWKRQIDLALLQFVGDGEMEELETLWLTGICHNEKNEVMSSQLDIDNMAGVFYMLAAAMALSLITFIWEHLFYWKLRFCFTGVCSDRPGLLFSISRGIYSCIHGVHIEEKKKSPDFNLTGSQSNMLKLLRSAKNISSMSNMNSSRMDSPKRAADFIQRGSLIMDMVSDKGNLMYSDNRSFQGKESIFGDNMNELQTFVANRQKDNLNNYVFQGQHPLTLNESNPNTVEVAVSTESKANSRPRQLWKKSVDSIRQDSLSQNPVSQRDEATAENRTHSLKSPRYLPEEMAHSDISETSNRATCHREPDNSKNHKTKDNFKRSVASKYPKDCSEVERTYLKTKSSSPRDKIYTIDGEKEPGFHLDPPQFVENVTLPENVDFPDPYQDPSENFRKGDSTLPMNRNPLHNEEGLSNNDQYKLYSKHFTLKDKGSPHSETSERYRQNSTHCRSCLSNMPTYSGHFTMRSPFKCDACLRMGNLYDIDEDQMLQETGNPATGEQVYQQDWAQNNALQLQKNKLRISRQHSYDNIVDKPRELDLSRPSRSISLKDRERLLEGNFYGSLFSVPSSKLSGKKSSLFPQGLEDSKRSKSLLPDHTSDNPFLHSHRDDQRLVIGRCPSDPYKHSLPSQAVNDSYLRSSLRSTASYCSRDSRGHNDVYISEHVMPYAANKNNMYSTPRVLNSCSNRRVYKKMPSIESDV
Procedure: as §1

[3] = target: T3, NR1/NR2C (Homo sapiens, UniProt Q05586+Q14957); assay: Two electrode voltage clamp, Xenopus laevis oocytes expressing NR1/NR2C; assay type: cell-based; conditions: for IC50: fitted to composite concentration-effect data, read-out: 2C IC50; for Emax: maximal effect of fit, read-out: 2C Max
T3 construct: expressed in transfected cells; host or cells: Xenopus laevis oocytes
From the text: Values are mean+SEM (n=14-20). […] C is the closed level; broken line is the open level.
The Hill slope at both receptors for all analogues was greater than 1, consistent with a cooperative effect of binding at two sites.
as §1

[4] = target: NR1/NR2D (Homo sapiens, UniProt O15399+Q05586); assay: Two electrode voltage clamp, Xenopus laevis oocytes expressing NR1/NR2D; conditions: for Emax: read-out: 2D Max; for activity at 30 µM: read-out: 2D percent effect at the maximum tested concentration, at 30 μM
NR1/NR2D, sequence (O15399 28-1336, species assumed, other chains not shown): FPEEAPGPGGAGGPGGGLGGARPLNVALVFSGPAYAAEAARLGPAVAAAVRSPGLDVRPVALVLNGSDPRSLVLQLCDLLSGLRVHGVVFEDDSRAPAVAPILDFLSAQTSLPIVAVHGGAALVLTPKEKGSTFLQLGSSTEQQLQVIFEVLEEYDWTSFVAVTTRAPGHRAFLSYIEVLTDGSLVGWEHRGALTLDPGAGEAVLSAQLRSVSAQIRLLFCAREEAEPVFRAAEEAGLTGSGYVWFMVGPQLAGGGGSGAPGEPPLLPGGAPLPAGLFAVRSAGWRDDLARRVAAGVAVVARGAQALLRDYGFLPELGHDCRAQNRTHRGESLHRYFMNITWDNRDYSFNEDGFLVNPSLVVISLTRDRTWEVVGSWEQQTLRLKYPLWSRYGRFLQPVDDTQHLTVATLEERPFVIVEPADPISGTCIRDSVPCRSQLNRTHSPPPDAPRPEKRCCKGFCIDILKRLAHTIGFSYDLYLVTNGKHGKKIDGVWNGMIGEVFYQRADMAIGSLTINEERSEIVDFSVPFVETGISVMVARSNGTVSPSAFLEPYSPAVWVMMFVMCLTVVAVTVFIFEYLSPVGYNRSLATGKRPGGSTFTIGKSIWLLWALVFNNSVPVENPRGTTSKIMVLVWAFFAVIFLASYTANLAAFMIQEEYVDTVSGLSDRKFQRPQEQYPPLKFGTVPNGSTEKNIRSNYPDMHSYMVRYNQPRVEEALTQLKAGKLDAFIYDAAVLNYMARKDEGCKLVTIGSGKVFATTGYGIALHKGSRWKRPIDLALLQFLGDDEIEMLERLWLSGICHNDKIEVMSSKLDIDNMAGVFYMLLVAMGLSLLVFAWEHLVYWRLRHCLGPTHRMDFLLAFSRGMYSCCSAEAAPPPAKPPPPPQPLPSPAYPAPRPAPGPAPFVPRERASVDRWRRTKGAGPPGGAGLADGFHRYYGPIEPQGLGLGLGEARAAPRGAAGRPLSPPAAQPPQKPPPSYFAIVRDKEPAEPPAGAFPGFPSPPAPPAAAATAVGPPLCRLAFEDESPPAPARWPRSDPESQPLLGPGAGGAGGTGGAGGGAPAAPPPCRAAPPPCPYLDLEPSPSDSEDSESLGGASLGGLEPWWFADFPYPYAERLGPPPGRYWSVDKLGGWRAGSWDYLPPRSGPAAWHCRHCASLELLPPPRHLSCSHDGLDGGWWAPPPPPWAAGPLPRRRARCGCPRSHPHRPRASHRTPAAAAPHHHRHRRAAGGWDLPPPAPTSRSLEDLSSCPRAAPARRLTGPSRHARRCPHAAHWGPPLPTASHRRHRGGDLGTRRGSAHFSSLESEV

[5] = read-out: 2B percent effect at the maximum tested concentration
[6] = read-out: 2C percent effect at the maximum tested concentration
[7] = read-out: 2D percent effect at the maximum tested concentration, at 100 μM

activity at 100 µM [1, 5] [%] | activity at 100 µM [3, 6] [%] | activity at 100 µM [4, 7] [%] | SMILES | activity at 100 µM [2] [%] | IC50 [3] [µM] | Emax [3] [%] | other results
128 | 93 | 103 | COc1cc2c(cc1OC)C(COc1ccc(SC)cc1)N(C(=O)c1ccccc1)CC2 (stereo not drawn) [1180-14] | 115 |  |  | 
89 | 73 | 84 | COc1cc2c(cc1OC)C(COc1ccccc1OC)N(C(=O)c1cccc(Cl)c1)CC2 (stereo not drawn) [1180-8] | 99 |  |  | 
 |  |  | Cc1ccc(-c2csc(NC(=O)c3ccc(C(C)(C)C)cc3)c2C(=O)O)cc1 [compound 1434] | 121 | 16 | 224 | IC50 [1]: 11 µM; IC50 [4]: 18 µM; Emax [4]: 273%
 | 99 | 87 | COc1ccc(OCC2c3cc(OC)c(OC)cc3CCN2C(=S)Nc2cccc(Cl)c2)cc1 (stereo not drawn) [compound 1415] |  |  |  | 
 |  |  | COc1ccc(OCC2c3cc(OC)c(OC)cc3CCN2C(=O)c2cccc(I)c2)cc1 (stereo not drawn) [1180-11] |  | 31 | 431 | activity at 30 µM ([1]; at 30 μM, read-out: 2B percent effect at the maximum tested concentration): 82%; activity at 30 µM [2]: 84%; activity at 30 µM [4]: 111%
96 | 84 | 89 | CCN1CC(C(O)Nc2ccc(OC)cc2OC)c2cc(OC)c(OC)cc2C1=O (stereo not drawn) [compound 1439] | 99 |  |  | 
 | 86 | 88 | COc1ccc(OCC2c3cc(OC)c(OC)cc3CCN2C(=O)Nc2ccccc2)cc1 (stereo not drawn) [compound 1407] |  |  |  | 
80 | 76 | 84 | COc1ccc(OCC2c3cc(OC)c(OC)cc3CCN2C(=O)c2ccccn2)cc1 (stereo not drawn) [compound 1484] | 100 |  |  | 
58 | 82 |  | COc1cc2c(cc1OC)CN(C(=O)c1cccc(Cl)c1)CC2 [1180-29] | 75 |  |  | 
98 | 103 | 103 | CC(C)(C)c1ccc(C(=O)Nc2scc(-c3ccc(Br)cc3)c2C(=O)O)cc1 [compound 1435] | 107 |  |  | 
 |  |  | CCOc1ccc(-c2csc(NC(=O)c3ccc(C(C)(C)C)cc3)c2C(=O)O)cc1 [compound 1423] | 121 | 26 | 323 | IC50 [1]: 18 µM; IC50 [4]: 25 µM; Emax [4]: 370%
 |  |  | CSC1=NCCN1C(=O)c1ccc(C(C)(C)C)cc1 [compound 1343] | 115 | 139 | 303 | IC50 [1]: 138 µM; IC50 [4]: 210 µM; Emax [4]: 480%
 | 88 | 97 | CSC1=NCCN1C(=O)c1ccc(C)cc1 [compound 1344] | 78 |  |  | IC50 [1]: 174 µM
 | 84 | 66 | COc1ccc(OCC2c3cc(OC)c(OC)cc3CCN2C(=O)Nc2ccc(Cl)cc2)cc1 (stereo not drawn) [compound 1411] |  |  |  | 
 |  |  | COc1cc2c(cc1OC)C(CCc1ccccc1)N(C(=O)c1cccc(F)c1)CC2 (stereo not drawn) [1180-1] | 110 |  |  | activity at 30 µM ([3]; at 30 μM, read-out: 2C percent effect at the maximum tested concentration): 96%; activity at 30 µM [4]: 90%
 | 93 | 79 | COc1ccc(OCC2c3cc(OC)c(OC)cc3CCN2C(=S)Nc2ccccc2)cc1 (stereo not drawn) [compound 1412] |  |  |  | 
 | 105 | 97 | COc1ccc(OCC2c3cc(OC)c(OC)cc3CCN2C(=O)c2ccccc2C)cc1 (stereo not drawn) [compound 1263] |  |  |  | 
 | 95 | 88 | COc1ccc(OCC2c3cc(OC)c(OC)cc3CCN2C(=O)c2ccc3c(c2)OCO3)cc1 (stereo not drawn) [compound 1408] |  |  |  | 
 | 104 | 93 | C=C(OC)c1ccc(OCC2c3cc(OC)c(OC)cc3CCN2C(=O)c2ccc(OC)cc2)cc1 (stereo not drawn) [compound 1367] |  |  |  | 
 | 94 | 89 | COC(=O)c1ccc(OCC2c3cc(OC)c(OC)cc3CCN2C(=O)c2cccc(Br)c2)cc1 (stereo not drawn) [compound 1410] |  |  |  | 
 |  |  | COc1ccc(OCC2c3cc(OC)c(OC)cc3CCN2C(=O)c2ccc(Cl)c(Cl)c2)cc1 (stereo not drawn) [1180-10] |  | 3 | 134 | IC50 [4]: 8 µM; Emax [4]: 172%
 |  |  | NCC(=O)O [glycine, reference compound] |  |  |  | EC50 [4]: 0.2 µM
 | 96 | 87 | COc1ccc(OCC2c3cc(OC)c(OC)cc3CCN2C(=S)Nc2cccc(Br)c2)cc1 (stereo not drawn) [compound 1416] |  |  |  | 
 |  |  | COc1ccc(OCC2c3cc(OC)c(OC)cc3CCN2S(=O)(=O)c2cccc(Cl)c2)cc1 (stereo not drawn) [compound 1511] |  |  |  | activity at 10 µM ([3]; at 10 μM, read-out: 2C percent effect at the maximum tested concentration): 99%; activity at 10 µM ([4]; read-out: 2D percent effect at the maximum tested concentration, at 10 μM): 96%
 | 102 | 74 | COc1ccc(OCC2c3cc(OC)c(OC)cc3CCN2C(=S)Nc2cccc(C)c2)cc1 (stereo not drawn) [compound 1413] |  |  |  | 
 | 99 | 93 | COc1ccc(OCC2c3cc(OC)c(OC)cc3CCN2C(=S)Nc2cccc(F)c2)cc1 (stereo not drawn) [compound 1414] |  |  |  | 
87 | 90 | 87 | COc1ccc(OCC2c3cc(OC)c(OC)cc3CCN2C(=O)c2ccncc2)cc1 (stereo not drawn) [compound 1510] |  |  |  | 
 |  |  | COc1ccc(OC[C@@H]2c3cc(OC)c(OC)cc3CCN2C(=O)c2cccc(Cl)c2)cc1 [1180-15] |  | 2.4 | 330 | activity at 30 µM [2]: 128%; IC50 [4]: 4 µM; Emax [4]: 364%
75 | 98 | 93 | COc1ccc(OCC2c3cc(OC)c(OC)cc3CCN2C(=O)c2ccc(OC)cc2)cc1 (stereo not drawn) [compound 1364] |  |  |  | 
 | 76 | 82 | COc1ccc(OCC2c3cc(OC)c(OC)cc3CCN2C(=O)c2ccccc2Cl)cc1 (stereo not drawn) [compound 1409] |  |  |  | 

SMILES | activity at 100 µM [1, 5] [%] | activity at 100 µM [3, 6] [%] | activity at 100 µM [4, 7] [%] | activity at 100 µM [2] [%] | IC50 [3] [µM] | Emax [3] [%] | other results
COc1ccc(OCC2c3c(cc(OC)cc3OC)CCN2C(=O)c2cccc(Br)c2)cc1 (stereo not drawn) [1180-21] | 72 |  |  | 92 | 7 | 265 | IC50 [4]: 7 µM; Emax [4]: 230%
COc1ccc(OCC2c3cc(OC)c(OC)cc3CCN2C(=O)c2ccc(Cl)cc2)cc1 (stereo not drawn) [compound 1368] | 78 |  |  | 105 | 4 | 135 | IC50 [4]: 5 µM; Emax [4]: 114%
Cc1cc(C(=O)O)c(NC(=O)c2ccc(C(C)(C)C)cc2)s1 [compound 1357] | 102 |  |  | 102 | 175 | 388 | IC50 [4]: 120 µM; Emax [4]: 326%
COc1ccc(OCC2c3c(cc(OC)cc3OC)CCN2C(=O)c2ccccc2)cc1 (stereo not drawn) [1180-19] | 100 |  |  | 63 | 10 | 160 | IC50 [4]: 9 µM; Emax [4]: 150%
COc1ccc(OCC2c3cc4c(cc3CCN2C(=O)c2cccc(Cl)c2)OCO4)cc1 (stereo not drawn) [1180-25] | 76 |  |  | 96 | 12 | 188 | IC50 [4]: 7 µM; Emax [4]: 162%
Cc1sc(NC(=O)c2ccc(C(C)(C)C)cc2)c(C(N)=O)c1C [compound 1433] | 98 |  |  | 97 | 51 | 134 | IC50 [4]: 34 µM; Emax [4]: 150%
COc1cc2c(cc1OC)CN(C(=O)c1ccccc1)CC2 [1180-28] | 95 | 78 |  | 71 |  |  | activity at 100 µM ([4]; read-out: 2D percent effect at the maximum tested concentration): 80%
